Test results taken from ChEMBL document CHEMBL6127057, “Design and synthesis of Thieno[3, 2-b]pyridinone derivatives exhibiting potent activities against Mycobacterium tuberculosis in vivo by targeting Enoyl-ACP reductase” (Eur J Med Chem, 2024).
Values after ≈ are worked out from the molar mass of the structure shown.

Columns and labels:
Assay type in all cases: functional
[1] = test system: Mycobacterium tuberculosis; experiment: Antimycobacterial activity against compound resistant Mycobacterium tuberculosis 16-4B harboring InhA GCC to GAC (A211D) phenotype
[2] = test system: Mycobacterium tuberculosis; experiment: Selectivity ratio of MIC for compound resistant Mycobacterium tuberculosis 16-4B harboring InhA GCC to GAC (A211D) phenotype to MIC for wild-type Mycobacterium tuberculosis H37Rv
[3] = test system: Mycobacterium tuberculosis; experiment: Antimycobacterial activity against compound resistant Mycobacterium tuberculosis 16-6B harboring InhA ATC to AGC (150S)
[4] = test system: Mycobacterium tuberculosis; experiment: Selectivity ratio of MIC for compound resistant Mycobacterium tuberculosis 16-1B harboring InhA TCG to TTG (S186L) phenotype to MIC for wild-type Mycobacterium tuberculosis H37Rv
[5] = test system: Mycobacterium tuberculosis; experiment: Selectivity ratio of MIC for compound resistant Mycobacterium tuberculosis 8-8B harboring InhA CTG to GTG (L197V) phenotype to MIC for wild-type Mycobacterium tuberculosis H37Rv
[6] = test system: Mycobacterium tuberculosis; experiment: Antimycobacterial activity against compound resistant Mycobacterium tuberculosis 8-8B harboring InhA CTG to GTG (L197V) phenotype
[7] = test system: Mycobacterium tuberculosis; experiment: Selectivity ratio of MIC for compound resistant Mycobacterium tuberculosis 16-6B harboring InhA ATC to AGC (150S) phenotype to MIC for wild-type Mycobacterium tuberculosis H37Rv
[8] = test system: Mycobacterium tuberculosis; experiment: Antimycobacterial activity against compound resistant Mycobacterium tuberculosis 16-1B harboring InhA TCG to TTG (S186L)

For `Cc1cccc(-c2c(O)c3scc(Br)c3[nH]c2=O)c1`, the MIC [1] was >128 mg/L, the Selectivity ratio [2] was “<=16” and the MIC [3] was 16 mg/L (≈ 47.6 µM). The Selectivity ratio [4] was “<=16”, the Selectivity ratio [5] was “<=16” and the MIC [6] was 32 mg/L (≈ 95.2 µM). For the same compound, the Selectivity ratio [7] was “<=16” and the MIC [8] was 16 mg/L (≈ 47.6 µM).
For `NNC(=O)c1ccncc1` [ISONIAZID], the MIC [1] was 0.063 mg/L (≈ 0.459 µM), the MIC [3] was 0.063 mg/L (≈ 0.459 µM) and the MIC [6] was 0.063 mg/L (≈ 0.459 µM). It also gave an MIC [8] of 0.063 mg/L (≈ 0.459 µM).
`CO[C@H]1/C=C/O[C@@]2(C)Oc3c(C)c(O)c4c(O)c(c(/C=N/N5CCN(C)CC5)c(O)c4c3C2=O)NC(=O)/C(C)=C\C=C\[C@H](C)[C@H](O)[C@@H](C)[C@@H](O)[C@@H](C)[C@H](OC(C)=O)[C@@H]1C` [RIFAMPIN] gave an MIC [1] of 64 mg/L (≈ 77.8 µM), an MIC [3] of 0.063 mg/L (≈ 0.0766 µM) and an MIC [6] of 0.063 mg/L (≈ 0.0766 µM). For the same compound, the MIC [8] was 0.063 mg/L (≈ 0.0766 µM).
